From patent publication US6541203B2, “Detecting structural or synthetic information about chemical compounds” (President and Fellows of Harvard College, priority 1998, dated 2003)

Key:
RNA molecules = details: specific RNA molecules; cited from earlier work
anti-dig = assay: Detection of hapten on TANTAGEL beads with anti-dig and AP-coupled secondary antibody; type: binding, mouse; details: 100% coupling on the beads
Experimental: Ninety (90) micrometer TANTAGEL-amine beads were mixed with dig-NHS ester at different concentrations to covalently label the beads with dig. Dig-NHS was added in amounts sufficient to label 100%, 10%, 1%, 0.1%, 0.01% and 0.001% of the amino groups. The remaining amino groups were capped with acetic anhydride, and the beads were washed.
Dig-labeled beads were incubated with anti-dig (1 microgram/ml) in the presence of BSA and buffer. The beads were washed, incubated with alkaline phosphatase (AP)-coupled goat anti-mouse antibody, and washed again. Then a chromogenic precipitating substrate (commercially available) for detecting AP was added. Blue color on the beads indicates the presence of AP, and thus effective detection of the dig hapten by antibody.

In the case of N=C(N)NCCC[C@@H](N)C(=O)O [D-arginine], the Kd (RNA molecules) is listed as 1.7 µM.

In the case of c1cc2ccc3cccc4ccc(c1)c2c34 [pyrene], the Staining of beads (anti-dig) is reported as “no staining”.
